Measurements taken from patent US20080311594A1, “USE OF FIBROBLAST GROWTH FACTOR 7 (Fgf7) AND OF THE RECEPTOR Fgfr2b AS BIOMARKERS” (priority 2007, published 2008).
Where two headings read alike, the source gives them in different places.

Experiments:
MXT-M3 tumour = MXT-M3 tumour model in mice, tumour weight at end of test; format: in vivo
Excerpt: For the test, an MXT-M3 tumour which was no longer strictly hormone-dependent was transplanted into mice.
The MXT(+) tumour model was induced in C57BLxDBA2F1 mice by intraperitoneal administration of a urethane solution. The developing mammary tumour could be transplanted further to mice with the same genetic background (syngeneic) and is still an established model. The MXT(+) model is distinguished very particularly by the fact that the tumours express both ER and PR in physiological concentrations. Although there are other hormone receptor-positive tumour models, frequently ER and PR are not functional therein and show no translocation from the cytoplasm into the nucleus after stimulation. Nor is it possible to show growth inhibition by hormone ablation here. These models are unsuitable for investigating antihormonal substances (Watson, Medina et al. 1977).
At the end of the test, the animals were sacrificed and the tumours were removed, and then the weight of the tumours was determined. The variation in the tumour weights is high in each group. The average tumour weights in the vehicle control group (427 mg) was 2.8 times higher than in the ovariectomized group (155 mg) and 2.2 times as high as in the group treated with 11β-(4-acetylphenyl)-17β-hydroxy-17α-(1,1,2,2,2-pentafluoroethyl)estra-4,9-dien-3-one (192 mg).
(§1) A limit was set in the ovariectomized group and that treated with 11β-(4-acetyl-phenyl)-17β-hydroxy-17α-(1,1,2,2,2-pentafluoroethyl)estra-4,9-dien-3-one: tumours having a weight higher than 100 mg were assessed as non-responders, and tumours with a weight less than 100 mg were classified as responders.
It was possible in the investigation of the tumour RNA of the in vivo experiment from Example 1 to identify biomarker candidates. To confirm these potential candidates, an independent animal experiment was carried out with the same study design, increasing the number of animals from ten to 20 per group. At the end of the test, the tumours were removed, the tumour weight was determined and the tumours were stored at −80° C. until RNA was isolated. The results are depicted in FIG. 2/5.
(§2) Exactly as in Test 1, the limit for response to the therapy and the non-response was set here at a tumour weight of 100 mg. The five largest tumours were selected from the control group. The RNA was isolated from the tumours, and gene expression of the biomarker candidates was determined.

Fgf7 [1] = test: Gene expression of Fgf7 in MXT tumours, GeneChip (Affymetrix) analysis; format: in vivo, mice; conditions: Example 1, non-responders (>100 mg) vs responders (<100 mg)
Description: (§3) For further gene expression studies, the RNA of selected tumours was isolated and analysed further by GeneChip analyses and real-time PCR:
(§4) The five largest tumours from the vehicle control group were selected.
as §1

Fgf7 [2] = test: Gene expression of Fgf7 in MXT tumours, real-time PCR; format: in vivo, mice; conditions: for Real-time regulation ZK-PRA NR versus vehicle control / Real-time regulation ZK-PRA R versus vehicle control: Fgf7; for Real-time regulation ZK-PRA NR versus vehicle control: non-responder tumours; for Real-time regulation ZK-PRA R versus vehicle control: responder tumours
Description: as §3, §4, §1, §2

Fgfr2 [3] = test: Gene expression of Fgfr2 in MXT tumours, real-time PCR; format: in vivo, mice; conditions: for Real-time regulation ZK-PRA NR versus vehicle control / Real-time regulation ZK-PRA R versus vehicle control: Fgfr2; for Real-time regulation ZK-PRA NR versus vehicle control: non-responder tumours; for Real-time regulation ZK-PRA R versus vehicle control: responder tumours
Description: as §3, §4, §1, §2

T47-D cells = test: Proliferation assay of T47-D cells with and without FGF7; format: cell-based, human; conditions: for growth (of maximum control): 10^−11 mol/l; for inhibition at 10 µM: 10^−5 mol/l
Description: The influence of FGF7 on the activity of 11β-(4-acetylphenyl)-17β-hydroxy-17α-(1,1,2,2,2-pentafluoroethyl)estra-4,9-dien-3-one was investigated on T47-D cells. […] 50 ng/ml FGF7 were added to the medium, and the activity of ZK-PRA was determined in a proliferation assay.
It was thus possible to inhibit growth by 58% through withdrawal of E2.
T47-D cells proliferate only in the presence of E2, so that E2 ablation serves as check of maximum growth inhibition. In the proliferation test without Fgf7 it was thus possible to achieve a maximum inhibition of almost 60%. On addition of Fgf7 to the medium, the effect was substantially smaller and the inhibition was now only 29%. Fgf7 thus downregulates not only ER and PR, so that the target for antiestrogens and antiprogestagens is lost, but additionally acts per se as growth factor, so that antihormonal effects or ablation of hormones are compensated. Fgf7 is a potent biomarker candidate. […] This was confirmed in an independent, second in vivo experiment. Fgf7 is a unidirectional, paracrine factor which has a local effect, but is nevertheless secreted, so that investigation is required of whether an elevated Fgf7 serum level possibly correlates with a non-response to treatment with 11β-(4-acetylphenyl)-17β-hydroxy-17α-(1,1,2,2,2-pentafluoroethyl)-estra-4,9-dien-3-one.

Fgfr2 [4] = test: Relative expression of Fgfr2 versus 18S rRNA in model cell lines; format: cell-based, human
Excerpt: Relative Expression of Fgfr2 Versus 18S rRNA in 6 Model Cell Lines […]
Expression of the receptor for fibroblast growth factor 7 (Fgf7) was not regulated in the sensitive T47-D cells on treatment with ZK-PRA (1.1 times higher on treatment with ZK-PRA). Expression in the ZK-PRA-resistant T47-D without treatment was twice as high as in the sensitive T47-D cells and declined somewhat with ZK-PRA treatment to 1.3 times the value of the untreated sensitive T47-D cells. Expression in all other cells was considerably less both in normal medium and on treatment with ZK-PRA: […]

progesterone receptor = biological target: T1, progesterone receptor (Homo sapiens, UniProt P06401); conditions: Fuhrmann et al., J. Med. Chem. 2000; cited from earlier work
T1 sequence (P06401 1-933): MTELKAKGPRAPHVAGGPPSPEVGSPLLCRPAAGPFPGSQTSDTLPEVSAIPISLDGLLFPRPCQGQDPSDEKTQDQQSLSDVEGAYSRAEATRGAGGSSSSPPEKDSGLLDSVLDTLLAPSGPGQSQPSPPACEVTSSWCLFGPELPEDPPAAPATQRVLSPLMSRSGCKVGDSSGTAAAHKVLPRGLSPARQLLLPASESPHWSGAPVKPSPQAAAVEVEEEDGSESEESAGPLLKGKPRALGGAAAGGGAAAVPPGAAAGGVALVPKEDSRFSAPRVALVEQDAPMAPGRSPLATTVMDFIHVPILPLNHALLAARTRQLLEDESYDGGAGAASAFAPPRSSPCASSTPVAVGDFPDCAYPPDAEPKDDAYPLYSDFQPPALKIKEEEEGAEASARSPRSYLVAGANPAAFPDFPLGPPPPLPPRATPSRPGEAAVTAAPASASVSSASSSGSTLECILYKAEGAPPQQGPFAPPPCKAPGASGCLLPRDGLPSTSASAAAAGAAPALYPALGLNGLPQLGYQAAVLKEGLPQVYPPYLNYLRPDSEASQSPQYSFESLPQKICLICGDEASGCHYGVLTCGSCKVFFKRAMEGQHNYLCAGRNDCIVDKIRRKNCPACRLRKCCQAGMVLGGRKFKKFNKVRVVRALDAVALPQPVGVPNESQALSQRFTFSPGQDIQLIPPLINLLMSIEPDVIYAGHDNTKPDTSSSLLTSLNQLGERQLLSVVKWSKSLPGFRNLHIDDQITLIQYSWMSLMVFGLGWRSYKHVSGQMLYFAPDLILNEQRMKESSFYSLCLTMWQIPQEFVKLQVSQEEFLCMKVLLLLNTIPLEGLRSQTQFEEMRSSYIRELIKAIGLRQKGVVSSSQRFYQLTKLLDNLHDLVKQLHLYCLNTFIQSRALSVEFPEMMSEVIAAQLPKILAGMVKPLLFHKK

MCF-7 cells = conditions: recombinant Fgf7 added to the culture medium, Chang et al. 2006; cited from earlier work
[5] = system: progesterone receptor (PR-A, PR-B) in T47-D cells; test: Western blot analysis of the progesterone receptor under the influence of FGF7; format: cell-based, human; conditions: Fgf7 20 and 50 ng/ml, 24 h and 72 h
Description: It is reported in the literature that FGF7 downregulates both ER and PR. In order to detect this effect, cells were incubated in medium with various amounts of FGF7 for 24 h and 72 h, and then the PR content was determined.

CC(=O)c1ccc([C@H]2C[C@@]3(C)[C@@H](CC[C@@]3(O)C(F)(F)C(F)(F)F)[C@@H]3CCC4=CC(=O)CCC4=C32)cc1 [ZK-PRA, 11β-(4-acetylphenyl)-17β-hydroxy-17α-(1,1,2,2,2-pentafluoroethyl)estra-4,9-dien-3-one]
average tumour weight (MXT-M3 tumour; Example 1, treated group, end of test): 192 mg
average tumour weight of vehicle control group relative to treated group (MXT-M3 tumour; Example 1, vehicle 427 mg): 2.2 times
average tumour weight (MXT-M3 tumour; Example 2 confirmation experiment, treated group): 215 mg
average tumour weight of vehicle control group relative to treated group (MXT-M3 tumour; Example 2 confirmation experiment, vehicle 577 mg): 2.7 times
Affymetrix regulation ZK-PRA NR versus ZK-PRA R (Fgf7 [1]): 2.30 (±0.33)
Fgf7 expression in non-responder tumours relative to vehicle controls (Fgf7 [2]; Example 1): 3.12 times
Fgf7 expression in responder tumours compared with the controls (Fgf7 [2]; Example 1): 70%
Real-time regulation ZK-PRA NR versus vehicle control (Fgf7 [2]; Example 1): 3.12 (±0.68)
Real-time regulation ZK-PRA R versus vehicle control (Fgf7 [2]; Example 1): 0.69 (±0.38)
Real-time regulation ZK-PRA NR versus vehicle control (Fgf7 [2]; Example 2 confirmation): 3.25 (±1.91)
Real-time regulation ZK-PRA R versus vehicle control (Fgf7 [2]; Example 2 confirmation): 1.72 (±0.68)
Fgfr2 expression, non-responders vs. control (Fgfr2 [3]; Example 1): 55%
Fgfr2 expression, responder tumours vs. control (Fgfr2 [3]; Example 1): 30%
Real-time regulation ZK-PRA NR versus vehicle control (Fgfr2 [3]; Example 1): 0.55 (±0.30)
Real-time regulation ZK-PRA R versus vehicle control (Fgfr2 [3]; Example 1): 0.30 (±0.07)
Real-time regulation ZK-PRA NR versus vehicle control (Fgfr2 [3]; Example 2 confirmation): 0.25 (±0.20)
Real-time regulation ZK-PRA R versus vehicle control (Fgfr2 [3]; Example 2 confirmation): 0.47 (±0.34)
growth (of maximum control) (T47-D cells; FGF7 50 ng/ml): 114%
growth (of maximum control) (T47-D cells; without FGF7): 114%
maximum growth inhibition (T47-D cells; Fgf7 50 ng/ml in the culture medium, no dose-response relation): about 20%
inhibition at 10 µM (T47-D cells; Homo sapiens, T47D, FGF7 50 ng/ml in the medium, read-out: growth inhibition): 24%
inhibition at 10 µM (T47-D cells; Homo sapiens, T47D, without FGF7, maximum control (E2) = 100%, read-out: growth inhibition): 42%
inhibition at 1 µM (T47-D cells; Homo sapiens, T47D, 10^−6 mol/l, without FGF7, read-out: growth inhibition): 47%
inhibition at 0.1 µM (T47-D cells; Homo sapiens, T47D, 10^−7 mol/l, without FGF7, read-out: growth inhibition): 50%
growth inhibition (T47-D cells; next lower concentration after 10^−5 mol/l, FGF7 50 ng/ml): 18%
activity in the proliferation assay (T47-D cells; sensitive T47-D cells, without FGF7): good activity
Fgfr2 mRNA on treatment compared with untreated T47-D cells (Fgfr2 [4]; BT-474 cells): 37 times lower
Fgfr2 mRNA on treatment compared with untreated sensitive T47-D cells (Fgfr2 [4]; MCF-7 cells): 153 times lower
Fgfr2 expression on treatment relative to untreated sensitive T47-D cells (Fgfr2 [4]; ZK-PRA-resistant T47-D cells): 1.3 times
Fgfr2 expression on treatment compared with T47-D under normal conditions (Fgfr2 [4]; ZR75-1 cells): 9.4 times lower
Fgfr2 expression on treatment relative to untreated (Fgfr2 [4]; sensitive T47-D cells): 1.1 times higher
antiprogestational activity (progesterone receptor): high antiprogestational activity

CC/C(=C(\c1ccccc1)c1ccc(OCCN(C)C)cc1)c1ccccc1 [tamoxifen]
activity in proliferation tests (MCF-7 cells): no activity

B1: Fgf7: Fibroblast growth factor 7, secreted glycoprotein; recombinant Fgf7 added to culture medium (protein, UniProt P21781 32-194, looked up)
Fibroblast growth factor 7: CNDMTPEQMATNVNCSSPERHTRSYDYMEGGDIRVRRLFCRTQWYLRIDKRGKVKGTQEMKNNYNIMEIRTVAVGIVAIKGVESEFYLAMNKEGKLYAKKECNEDCNFKELILENHYNTYASAKWTHNGGEMFVALNQKGIPVRGKKTKKEQKTAHFLPMAIT
amount of PR (Western blot) [5]: distinct decrease in PR
